Measured values from article PMC11077089, “Molecular basis of A. thaliana KEOPS complex in biosynthesizing tRNA t^6A” (Nucleic Acids Research, 2024).

Key:
Type in all cases: biochemical
[1] = target: T1, KB (KAE1–BUD32) (Arabidopsis thaliana, UniProt Q94K14); assay: NADH-coupled ATPase assay; details: 2 mM ATP, 5 μM protein, 5 mM MgCl2, pH 7.5, 25°C
T1 construct: gene T1N24.12; pET21a-AtKAE1-BUD32-6His, E. coli; monomer (1:1) by SEC; with tRNA N6-adenosine threonylcarbamoyltransferase KAE1
T1 sequence (Q94K14 1-226): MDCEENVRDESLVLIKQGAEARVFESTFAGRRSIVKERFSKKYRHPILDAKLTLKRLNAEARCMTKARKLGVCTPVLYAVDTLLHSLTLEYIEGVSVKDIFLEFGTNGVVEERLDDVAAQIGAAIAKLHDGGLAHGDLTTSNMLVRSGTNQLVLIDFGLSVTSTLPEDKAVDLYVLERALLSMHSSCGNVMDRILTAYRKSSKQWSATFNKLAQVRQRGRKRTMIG
T1 sequence (O49653 1-353 partner): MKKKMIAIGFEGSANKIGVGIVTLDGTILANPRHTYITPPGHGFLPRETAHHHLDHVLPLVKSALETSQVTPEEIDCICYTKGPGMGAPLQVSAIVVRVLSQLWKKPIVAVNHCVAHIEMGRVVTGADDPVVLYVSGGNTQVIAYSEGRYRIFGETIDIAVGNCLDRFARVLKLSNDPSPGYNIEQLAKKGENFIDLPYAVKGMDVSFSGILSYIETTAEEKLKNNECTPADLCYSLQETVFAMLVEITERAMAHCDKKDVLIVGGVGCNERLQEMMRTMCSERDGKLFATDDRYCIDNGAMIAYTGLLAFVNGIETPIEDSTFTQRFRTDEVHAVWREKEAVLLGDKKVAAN

[2] = target: T2, KBP (KAE1–BUD32–PCC1) (Arabidopsis thaliana, UniProt Q94K14); assay: NADH-coupled ATPase assay; details: 2 mM ATP, 5 μM protein, 5 mM MgCl2, pH 7.5, 25°C
T2 construct: gene T1N24.12; subcomplex without CGI121, recombinant from E. coli; dimer by SEC; with tRNA N6-adenosine threonylcarbamoyltransferase KAE1; EKC/KEOPS complex subunit PCC1
T2 sequence (Q94K14 1-226): T1 sequence (Q94K14 1-226)
T2 sequence (O49653 1-353 partner): T1 sequence (O49653 1-353 partner)
T2 sequence (Q8GWD7 1-96 partner): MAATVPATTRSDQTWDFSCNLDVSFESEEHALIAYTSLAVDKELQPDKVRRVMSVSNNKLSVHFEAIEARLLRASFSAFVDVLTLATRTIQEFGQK

[3] = target: T3, AtYRDC (A. thaliana YRDC) (Arabidopsis thaliana, UniProt F4K0E6); assay: LC-MS of TC-AMP formation; details: 2 μM YRDC, 4 mM L-threonine, 2 mM ATP, 20 mM NaHCO3, 5 mM MgCl2, pH 7.5, 25°C
T3 construct: gene MUP24.1; pET21a-AtYRDC-6His, E. coli, synthetic DNA
T3 sequence (F4K0E6 1-288): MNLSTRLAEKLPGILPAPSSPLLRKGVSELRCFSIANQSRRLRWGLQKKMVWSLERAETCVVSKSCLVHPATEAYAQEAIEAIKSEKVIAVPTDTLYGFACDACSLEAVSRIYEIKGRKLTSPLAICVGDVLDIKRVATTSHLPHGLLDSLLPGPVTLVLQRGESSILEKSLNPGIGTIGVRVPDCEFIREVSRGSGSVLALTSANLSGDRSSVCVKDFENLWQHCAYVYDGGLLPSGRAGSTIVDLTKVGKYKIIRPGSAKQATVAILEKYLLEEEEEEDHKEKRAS

| SMILES | NADH-coupled ATPase assay [1] | NADH-coupled ATPase assay [2] | LC-MS of TC-AMP formation [3] |
| --- | --- | --- | --- |
| Nc1ncnc2c1ncn2[C@@H]1O[C@H](COP(=O)(O)OP(=O)(O)OP(=O)(O)O)[C@@H](O)[C@H]1O [ATP] | efficient conversion of ATP to ADP in the presence of KAE1–BUD32, PCC1–KAE1–BUD32 or KEOPS | efficient conversion of ATP to ADP in the presence of KAE1–BUD32, PCC1–KAE1–BUD32 or KEOPS |  |
| C[C@@H](O)[C@H](N)C(=O)O [L-threonine] |  |  | YRDC is active in catalyzing the formation of threonylcarbamoyl-AMP (TC-AMP) |
